Test results from US12262725B2, “Improving taste profile of orange juice” (SYMRISE AG, priority 2015, dated 2025).

Assays:
Format in all cases: in vivo
[1] = Masking the perception of the acid and the bitterness in orange juice; panelists rate sweet, bitter and sour on a 0-10 scale; details: for Assessment (0-10) Bitter / Assessment (0-10) Sour / Assessment (0-10) Sweet: scale 0-10
Text: The panelists (n=6-8) thereby evaluate the 3 attributes “sweet”, “bitter” and “sour” on an unstructured scale of 0 (no taste) to 10 (strong taste). In one sample, the panelists receive the orange juice alone, in a further sample, they received the orange juice which was supplemented with an amount of neoflavonoids as listed in one of the tables. Thereby, the order is arbitrary and not known to the panelists before.
In the following Tables 1A to 1D, the results of the evaluations are summed up.

[2] = Masking of typical bitter substances from citrus products; bitterness rated by a group of experts; details: for Assessment Bitter (0-10) With neoflavonoid: amount of neoflavonoid not given; for Relative masking (bitter): with vs without neoflavonoid
Text: Masking of Typical Bitter Substances from Citrus Products
For quantifying the reduction (i.e. the masking or the decrease) of the bitter impression in a sample, the bitterness of a solution containing the bitter substances named in the following Table 2 in column 1 were each compared with a sample, which contained the corresponding bitter substance and additionally the respectively specified amount of a neoflavonoid (column 2) by a group of experts (classification: 1 [not bitter] to 10 [extremely bitter]). For the analysis, i. e. the calculation of the reduction (in %) of the bitter impression, the respective average values of the assessments of the group of experts were used.

[3] = Masking of the perception of the acid in citrus containing carbonated drinks; panelists rate sour on a 0-10 scale
Text: Masking of the Perception of the Acid in Citrus Containing Carbonated Drinks
For quantifying the reduction (i. e. the masking or the decrease) of the perception of the acid in a sample, the panelists (n=6-8) assess the attribute “sour” on a non-structured scale from 0 (no taste)-10 (strong taste). The panelists receive in one sample the citrus/-lime soft drink reduced in sugar alone, in a further sample the soft drink, to which an amount of neoflavonoids specified in Table 3 has been added. Thereby, the order is arbitrary and not known to the panelists before. In the following Table, the results of the evaluations are summed up.

[4] = Trial 1C, orange juice comprising 7 ppm limonin, 25 ppm neoflavonoid vs juice alone
[5] = Trial 1C, orange juice comprising 7 ppm limonin, 25 ppm neoflavonoid
[6] = Trial 1B, orange juice comprising 7 ppm limonin, 20 ppm neoflavonoid vs juice alone
[7] = Trial 1B, orange juice comprising 7 ppm limonin, 20 ppm neoflavonoid
[8] = Trial 1D, orange juice comprising 7 ppm limonin, 25 ppm neoflavonoid vs juice alone
[9] = Trial 1D, orange juice comprising 7 ppm limonin, 25 ppm neoflavonoid
[10] = HLB Hamlin orange juice, 15 ppm neoflavonoid vs juice alone
[11] = Orange juice comprising 7.8 ppm limonin, 10 ppm neoflavonoid vs juice alone
[12] = Orange juice comprising 7.8 ppm limonin, 10 ppm neoflavonoid, n=6-8
[13] = Orange juice, oranges infected with HLB from early ripening Hamlin March 2014, 15 ppm neoflavonoid, n=6-8

With `O=C1CC(c2ccc(O)cc2)c2ccc(O)cc2O1` (stereo not shown) [1:1 mixture from component 29 and 30, 7-hydroxy-4-(4-hydroxy-phenyl)-chroman-2-on] the “Relative change Bitter” value [1, 4] was −45%, the “Relative change Sour” value [1, 4] was −33% and the “Relative change Sweet” value [1, 4] was “+13%”. For the same compound, the “Assessment (0-10) Bitter” value [1, 5] was 2.4, the “Assessment (0-10) Sour” value [1, 5] was 3.0 and the “Assessment (0-10) Sweet” value [1, 5] was 5.3.
In the case of `O=C1CC(c2ccc(O)cc2)c2c(O)cc(O)cc2O1` (stereo not shown) [1:1 mixture from component 11 and 12, 5,7-dihydroxy-4-(4-hydroxyphenyl)-chroman-2-on], the “Relative change Bitter” value [1, 6] is reported as −45%, the “Relative change Sour” value [1, 6] is reported as −33% and the “Relative change Sweet” value [1, 6] is reported as “+13%”. For the same compound, the “Assessment (0-10) Bitter” value [1, 7] was 2.8, the “Assessment (0-10) Sour” value [1, 7] was 3.1 and the “Assessment (0-10) Sweet” value [1, 7] was 4.8. The “Assessment Bitter (0-10) With neoflavonoid” value (“Assessment Bitter” for short) ([2]; solution of 10 ppm limonin) was 2.8, the “Relative masking (bitter)” value ([2]; solution of 10 ppm limonin) was −38% and the “Assessment Bitter” value ([2]; solution of 50 ppm poncirin) was 3.6. The “Relative masking (bitter)” value ([2]; solution of 50 ppm poncirin) was −8%, the “Assessment Bitter” value ([2]; solution of 75 ppm naringin) was 3.7 and the “Relative masking (bitter)” value ([2]; solution of 75 ppm naringin) was −18%.
In the case of `COc1cc(C2CC(=O)Oc3cc(O)cc(OC)c32)ccc1O` (stereo not shown) [1:1 mixture from component 41 and 42, 7-hydroxy-4-(4-hydroxy-3-methoxy-phenyl)-5-methoxy-chroman-2-on], the “Relative masking (sour)” value ([3]; Carbonated soft drink (7° Brix, 0.2% citric acid), with vs without neoflavonoid, p < 0.1) is reported as −17%, the “Assessment Sour (0-10) With neoflavonoid” value ([3]; Carbonated soft drink (7° Brix, 0.2% citric acid, 0.0001% citrus oil, 0.0001% lime oil, 0.06% citrus aroma), n=6-8) is reported as 3.4 and the “Relative change Bitter” value [1, 8] is reported as −43%. For the same compound, the “Relative change Sour” value [1, 8] was −13%, the “Relative change Sweet” value [1, 8] was “+43%” and the “Assessment (0-10) Bitter” value [1, 9] was 2.7. For the same compound, the “Assessment (0-10) Sour” value [1, 9] was 3.7, the “Assessment (0-10) Sweet” value [1, 9] was 5.9 and the “Assessment Bitter” value ([2]; solution of 100 ppm naringin) was 3.7. The “Relative masking (bitter)” value ([2]; solution of 100 ppm naringin) was −15%.
For `COc1cc(C2CC(=O)Oc3cc(O)cc(O)c32)ccc1O` (stereo not shown) [1:1 mixture from component 9 and 10, 5,7-dihydroxy-4-(4-hydroxy-3-methoxy-phenyl)chroman-2-on], the “Relative change Bitter” value [1, 10] was −36%, the “Relative change Sour” value [1, 10] was −19% and the “Relative change Sweet” value [1, 10] was “+22%”. The “Relative change Bitter” value [1, 11] was −46%, the “Relative change Sour” value [1, 11] was −35% and the “Relative change Sweet” value [1, 11] was “+52%”. For the same compound, the “Assessment (0-10) Bitter” value [1, 12] was 2.5, the “Assessment (0-10) Sour” value [1, 12] was 3.5 and the “Assessment (0-10) Sweet” value [1, 12] was 6.0. The “Assessment (0-10) Bitter” value [1, 13] was 2.7, the “Assessment (0-10) Sour” value [1, 13] was 3.5 and the “Assessment (0-10) Sweet” value [1, 13] was 3.8. The “Assessment Bitter” value ([2]; solution of 10 ppm limonin) was 2.5, the “Relative masking (bitter)” value ([2]; solution of 10 ppm limonin) was −19% and the “Assessment Bitter” value ([2]; solution of 50 ppm poncirin) was 3.5. The “Relative masking (bitter)” value ([2]; solution of 50 ppm poncirin) was −29%, the “Assessment Bitter” value ([2]; solution of 75 ppm naringin) was 2.9 and the “Relative masking (bitter)” value ([2]; solution of 75 ppm naringin) was −24%.
